# Source: paper PMC10482942, “Novel quinazoline-1,2,3-triazole hybrids with anticancer and MET kinase targeting properties” (Scientific Reports, 2023)
# Tests used:
# EBC-1 cells = test: SRB antiproliferative assay, monolayer culture; assay type: cell-based, human; settings: mean ± S.E.M.
# Description: (§1) EBC-1 (human lung […] cells with MET gene amplification) and Mia-Paca-2 (human PDAC cells) were obtained from Japanese Collection of Research Bio Resources Cell Bank (JCRB). AsPC-1 (human PDAC), MKN-45 (human gastric adenocarcinoma cells with MET gene amplification), HT-29 (human colorectal adenocarcinoma), and K562 cells (human chronic myelogenous leukemia) were obtained from the Iranian Biological Resource Centre, Tehran, Iran. AsPC-1, EBC-1, MKN-45, and K562 cells were cultured in RPMI 1640 medium containing 10% heat-inactivated fetal bovine serum (FBS) and 1% penicillin/streptomycin. Mia-Paca-2 and HT-29 cells were grown in DMEM low glucose, containing 10% and 20% heat-inactivated FBS, resoectively and 100 U/ml penicillin/streptomycin. All cells were grown in monolayer cultures at 37 °C in a humidified incubator with 5% CO2.
# (§2) Antiproliferative effects of synthetic compounds were evaluated by the SRB assay as described previously. Cancer cells were trypsinized, homogenous cell suspensions were prepared and 100 µl of cell suspensions were cultured at the densities of 5 × 10^4 cells/ml (for AsPC-1 and Mia-Paca-2), 4 × 10^4 cells/m (for EBC-1 and MKN-45), 3 × 10^4 cells/ml (for K562) and 1 × 10^4 cells/ml (for HT-29) in 96-well flat-bottom plates. After 24 h of incubation to allow cells to attach and resume optimal growth, the synthetic compounds dissolved in DMSO and diluted in the growth medium were added. One hundred µl of synthesized derivatives were added at different concentrations in triplicate and incubated for an additional 72 h at 37 °C. The cells were then fixed by gentle addition of 50 μl cold trichloroacetic acid (TCA) 50% (w/v, 10% final concentration) and incubated for 60 min at 4 °C. Then, the supernatant was discarded, and the plates were washed four times with distilled water and air dried. Afterwards, 100 μl of SRB solution 0.04% (w/v) dissolved in 1% acetic acid was added to each well, and plates were incubated for 15 min at room temperature. At the next step, the unbound dye was removed by washing four times with 1% acetic acid and the plates were air dried. The bound stain was finally solubilized with 150 μl of 10 mM Tris base solution, and the absorbance was recorded at a wavelength of 540 nm with a Bio-Tek microplate reader (Model Synergy HTX).
# HT-29 cells = test: SRB antiproliferative assay, monolayer culture; assay type: cell-based, human; settings: mean ± S.E.M.
# Description: as §1, §2
# AsPC-1 cells = test: SRB antiproliferative assay, monolayer culture; assay type: cell-based, human; settings: mean ± S.E.M.
# Description: as §1, §2
# K562 cells = test: SRB antiproliferative assay, monolayer culture; assay type: cell-based, human; settings: mean ± S.E.M.
# Description: as §1, §2
# Mia-Paca-2 cells = test: SRB antiproliferative assay, monolayer culture; assay type: cell-based, human; settings: mean ± S.E.M.
# Description: as §1, §2
# MKN-45 cells = test: SRB antiproliferative assay, monolayer culture; assay type: cell-based, human; settings: mean ± S.E.M.
# Description: as §1, §2
SMILES,"IC50 (EBC-1 cells; Homo sapiens, EBC-1, 72 h) [µM]","IC50 (HT-29 cells; Homo sapiens, HT-29, 72 h) [µM]","IC50 (AsPC-1 cells; Homo sapiens, ASPC1, 72 h) [µM]","IC50 (K562 cells; Homo sapiens, K562, 72 h) [µM]","IC50 (Mia-Paca-2 cells; Homo sapiens, MIA PaCa-2, 72 h) [µM]","IC50 (MKN-45 cells; Homo sapiens, MKN-45, 72 h) [µM]",melting point [°C],IC50 (EBC-1 cells; 72 h) [µM],IC50 (HT-29 cells; 72 h) [µM],IC50 (AsPC-1 cells; 72 h) [µM],IC50 (K562 cells; 72 h) [µM],IC50 (Mia-Paca-2 cells; 72 h) [µM],IC50 (MKN-45 cells; 72 h) [µM]
"COc1cc2nccc(Oc3ccc(NC(=O)C4(C(=O)Nc5ccc(F)cc5)CC4)cc3)c2cc1OC [Cabozantinib, reference compound]",0.059 ± 0.014,3.7 ± 0.67,1.4 ± 0.1,4 ± 1,3.8 ± 0.6,1.04 ± 0.06,–,–,–,–,–,–,–
"Brc1ccc(Cn2cc(COc3ccc(C=NNc4ncnc5ccccc45)cc3)nn2)cc1 [Compound 8a, 2-(4-((1-(4-Bromobenzyl)-1H-1,2,3-triazol-4-yl)methoxy)benzylidene)-1-(quinazolin-4-yl)hydrazine]",> 100,> 100,> 100,57.4 ± 21.9,> 100,> 100,207.3,–,–,–,–,–,–
"Fc1ccc(Cn2cc(COc3ccc(C=NNc4ncnc5ccccc45)cc3)nn2)cc1 [Compound 8b, 2-(4-((1-(4-Fluorobenzyl)-1H-1,2,3-triazol-4-yl)methoxy)benzylidene)-1-(quinazolin-4-yl)hydrazine]",> 100,> 100,> 100,> 100,> 100,> 100,204.9,–,–,–,–,–,–
"Clc1ccc(Cn2cc(COc3ccc(C=NNc4ncnc5ccccc45)cc3)nn2)cc1Cl [Compound 8d, 2-(4-((1-(3,4-Dichlorobenzyl)-1H-1,2,3-triazol-4-yl)methoxy)benzylidene)-1-(quinazolin-4-yl)hydrazine]",> 100,93.4 ± 2.2,> 100,> 100,> 100,83.6 ± 6,224.6,–,–,–,–,–,–
"Clc1ccc(Cn2cc(COc3ccc(C=NNc4ncnc5ccccc45)cc3)nn2)cc1 [Compound 8e, 2-(4-((1-(4-Chlorobenzyl)-1H-1,2,3-triazol-4-yl)methoxy)benzylidene)-1-(quinazolin-4-yl)hydrazine]",> 100,> 100,> 100,61.5 ± 21.6,> 100,> 100,–,–,–,–,–,–,–
"O=[N+]([O-])c1ccc(Cn2cc(COc3ccc(C=NNc4ncnc5ccccc45)cc3)nn2)cc1 [Compound 8f, 2-(4-((1-(4-Nitrobenzyl)-1H-1,2,3-triazol-4-yl)methoxy)benzylidene)-1-(quinazolin-4-yl)hydrazine]",> 100,> 100,> 100,> 100,> 100,56.6 ± 6.5,208.4,–,–,–,–,–,–
"C(=NNc1ncnc2ccccc12)c1ccc(OCc2cn(Cc3ccccc3)nn2)cc1 [Compound 8g, 2-(4-((1-Benzyl-1H-1,2,3-triazol-4-yl)methoxy)benzylidene)-1-(quinazolin-4-yl)hydrazine]",> 100,> 100,> 100,96.6 ± 1.1,> 100,67.7 ± 4.6,218.6,–,–,–,–,–,–
O=C1c2ccccc2C(=O)N1CCCn1cc(COc2ccccc2C=NNc2ncnc3ccccc23)nn1 [Compound 8i],–,–,–,–,–,–,–,89.4 ± 4.3,> 100,> 100,86.2 ± 3,> 100,> 100
"C[C@@H](Oc1cc(-c2cnn(C3CCNCC3)c2)cnc1N)c1c(Cl)ccc(F)c1Cl [Crizotinib, reference compound]",0.006 ± 0.001,–,2.45 ± 1.3,–,2.36 ± 1.2,0.05 ± 0.003,–,–,–,–,–,–,–
